Test results: PubChem BioAssay (NCI)
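Exposure lasted 48 hours, with cells grown in 96-well plates and compounds tested at five concentrations. Definition used: TGI = concentration required for complete inhibition of growth.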

Legend:
Test in all cases: inhibition of tumour cell growth, NCI panel, 48 h
DLD-1 colon = tested on: DLD-1 colon
M19-MEL melanoma = tested on: M19-MEL melanoma
HL-60(TB) leukemia = tested on: HL-60(TB) leukemia
SNB-78 CNS = tested on: SNB-78 CNS
XF 498 CNS = tested on: XF 498 CNS
DMS 114 small cell lung = tested on: DMS 114 small cell lung
CCRF-CEM leukemia = tested on: CCRF-CEM leukemia
KM20L2 colon = tested on: KM20L2 colon
LXFL 529 NSCLC = tested on: LXFL 529 NSCLC
RXF-631 renal = tested on: RXF-631 renal
DMS 273 small cell lung = tested on: DMS 273 small cell lung
SNB-75 CNS = tested on: SNB-75 CNS
HOP-18 NSCLC = tested on: HOP-18 NSCLC

Compound | TGI (DLD-1 colon) [µM] | TGI (M19-MEL melanoma) [µM] | TGI (HL-60(TB) leukemia) [µM] | TGI (SNB-78 CNS) [µM] | TGI (XF 498 CNS) [µM] | TGI (DMS 114 small cell lung) [µM] | TGI (CCRF-CEM leukemia) [µM] | TGI (KM20L2 colon) [µM] | TGI (LXFL 529 NSCLC) [µM] | TGI (RXF-631 renal) [µM] | TGI (DMS 273 small cell lung) [µM] | TGI (SNB-75 CNS) [µM] | TGI (HOP-18 NSCLC) [µM]
CSc1nc(NC(=O)O)c(N(C(C)=O)C(=O)O)c(=O)n1C | > 100 | > 100 | > 100 | > 100 | > 100 | > 100 | > 100 | > 100 | > 100 | > 100 | > 100 |  | 
CC1(C)CCC[C@@]2(C)C1CC[C@H]1CC(O)C3(C)CCC12C3 (some centres undefined) | 30.9 | 38.2 | 51.2 | 37 | 31.7 | 31.2 | 61.2 | 33 | 31.2 | 33.5 |  | 39.3 | 
COC(=O)C12C3C4C5C3(C#N)C1C5(C(=O)OC)C42C(=O)N(C(C)C)C(C)C (centres undefined) | > 70.6 | > 100 | > 60 | > 100 | > 100 | > 100 | > 67.5 | > 100 | > 100 | > 100 | > 59.3 | > 100 | > 100
Cc1ccc(/C=C/C(=O)c2sc(-c3cccnc3)nc2C)cc1 | > 100 | > 100 | > 100 | > 100 |  |  | > 100 | > 100 |  | > 100 | > 100 |  | > 100
